Data reported in patent publication US8129532B2, “Amino(oligo)thiophene dyes, preparation thereof, and optical methods of use” (The University of Connecticut, priority 2007, dated 2012).

Assays:
[1] = One-photon fluorescence relative signal change per 100 mV; settings: excitation / long-pass emission (nm) given
Description: The left-most data columns of Table 1 are the absorption and emission maxima for one photon fluorescence in soybean multi-lamellar lipid vesicles used to mimic the membrane environment. The column indicating relative signal change for one-photon fluorescence also lists the excitation light source used and the lower bounds of the long-pass emission detected.

[2] = system: NIE-115 mouse neuroblastoma; assay: Time-dependence (kinetics) of SHG and 2PF signal change after voltage-clamp step; assay type: cell-based
Description: For full details of our non-linear imaging microscope, we refer the reader to previously published descriptions. A. C. Millard, P. J. Campagnola, W. Mohler, A. Lewis, and L. M. Loew, “Second Harmonic Imaging Microscopy,” Meth. Enzymol. 361, 47-69 (2003); Millard, A. C., L. Jin, and L. M. Loew, “Second Harmonic Generation Imaging Microscopy with a High Power Ultrafast Fiber Laser,”Commercial and Biomedical Applications of Ultrafast Lasers. 5714-5716, 92-98 (2005); A. C. Millard, L. Jin, M.-D. Wei, J. P. Wuskell, A. Lewis, and L. M. Loew, “Sensitivity of Second Harmonic Generation from Styryl Dyes to Transmembrane Potential,” Biophys. J. 86, 1169-1176 (2004). Our current microscope combines a Fluoview (Olympus) scan-head and an Axiovert (Zeiss) inverted microscope constructed for multiple imaging methodologies including wide-field, one-photon excitation fluorescence imaging, as well as SHG and 2PF imaging. Our laser sources include a Mira (Coherent) Ti:sapphire laser and a Femtopower (Fianium) fiber laser operating at 1064 nm. Millard, A. C., L. Jin, and L. M. Loew, “Second Harmonic Generation Imaging Microscopy with a High Power Ultrafast Fiber Laser,”Commercial and Biomedical Applications of Ultrafast Lasers. 5714-5716, 92-98 (2005). For excitation, we routinely use an IR-Achroplan (Zeiss) 40×, 0.8 NA water-immersion objective though for shorter wavelengths we also use an A-Plan (Zeiss) 40×, 0.65 NA air objective. Fluorescence is imaged (for linear imaging) or collected (for non-linear imaging) back through the excitation objective, while SHG is collected in the forward, transmitted light direction by a condenser, either 0.8 NA or 0.55 NA (Zeiss). For optimal collection, the numerical aperture of the condenser should be at least 1/√2 of the numerical aperture of the excitation objective (L. Moreaux, O. Sandre, S. Charpak, M. Blanchard-Desce, and J. Mertz, “Coherent Scattering in Multi-Harmonic Light Microscopy,” Biophys. J. 80, 1568-1574 (2001); L. Moreaux, O. Sandre, and J. Mertz. “Membrane Imaging by Second Harmonic Generation Microscopy,” J. Opt. Soc. Am. B. 17, 1685-1694 (2000)), though in practice a condenser of slightly lower numerical aperture will often suffice. Since the wavelength of second harmonic light is precisely half that of the excitation light, the choice of filter for SHG imaging is greatly simplified and the primary concern is the blocking of the excitation light that is also transmitted through the sample as well as fluorescence that is emitted forwards.
NIE-115 mouse neuroblastoma were cultured in DMEM with 10% fetal bovine serum and 1% antibiotic-antimycotic (Invitrogen, Carlsbad, Calif.) in a 60 mm plastic dish (353002, Becton Dickinson, Franklin Lakes, N.J.). The culture was maintained at 37° C. with 5% CO2 for a period of 48 hours prior to experimentation.
For experimentation the growth medium was replaced with 3 mL of Earle's Balanced Salt Solution (EBSS, Sigma, St. Louis, Mo.) with 20 mM HEPES (Merck Biosciences AG, Laufelfingen, Switzerland). The internal buffer, injected into the patch pipette, was a potassium aspartate (140 mM, Sigma, St. Louis, Mo.), sodium chloride (5 mM, Sigma, St. Louis, Mo.) and HEPES (10 mM) solution at a pH of 7.35. The pH was adjusted with potassium hydroxide and hydrochloric acid.
For characterizing the voltage-sensitivity of SHG and 2PF, we used a slow (˜0.1 Hz) switching protocol as previously described (A. C. Millard, P. J. Campagnola, W. Mohler, A. Lewis, and L. M. Loew, “Second Harmonic Imaging Microscopy,” Meth. Enzymol. 361, 47-69 (2003); Millard, A. C., L. Jin, and L. M. Loew, “Second Harmonic Generation Imaging Microscopy with a High Power Ultrafast Fiber Laser,” Commercial and Biomedical Applications of Ultrafast Lasers. 5714-5716, 92-98 (2005); A. C. Millard, L. Jin, M.-D. Wei, J. P. Wuskell, A. Lewis, and L. M. Loew, “Sensitivity of Second Harmonic Generation from Styryl Dyes to Transmembrane Potential,” Biophys. J. 86, 1169-1176 (2004)) with a 50 mV step. […]

[3] = One-photon absorption and emission spectra in multilamellar lipid vesicles, water and ethanol; assay type: physicochemical; settings: for 1PF Abs. Max / 1PF Em. Max: one photon, soybean multi-lamellar lipid vesicles
Description: […] The column indicating relative signal change for one-photon fluorescence also lists the excitation light source used and the lower bounds of the long-pass emission detected.
Absorption and emission spectra were obtained for a series of dyes with different acceptors: pyridinium (PY-1261), quinolinium (PY-212), and acridinium (PY-2240).

[4] = system: layer V pyramidal neurons; assay: Voltage-sensitive dye imaging of action potentials in intracellularly stained pyramidal neurons in brain slices; assay type: cell-based, Sprague Dawley rats; settings: for dF/F at 658 nm: backpropagating AP, basal dendrites 80-150 μm from soma, %; for dF/F at 658 nm / S/N ratio at 658 nm: laser spot 658 nm
Description: Sprague Dawley rats (P21-42) were anesthetized with isoflurane, decapitated, and the brains were removed with the head immersed in ice-cold, artificial cerebrospinal fluid (ACSF), according to an animal protocol approved by the Center for Laboratory Animal Care, University of Connecticut. Brain slices (300 μm) were cut from frontal lobes in the coronal plane. ACSF contained (in mM) 125 NaCl, 26 NaHCO3, 10 glucose, 2.3 KCl, 1.26 KH2PO4, 2 CaCl2 and 1 MgSO4, pH 7.4. Whole-cell recordings were made from visually identified layer V pyramidal neurons on the medial part of the slice. Intracellular solution contained (in mM) 135 K-gluconate, 2 MgCl2, 3 Na2-ATP, 10 Na2-phosphocreatine, 0.3 Na2-GTP and 10 Hepes (pH 7.3, adjusted with KOH). Electrical signals were amplified with Multiclamp 700A and digitized with two input boards: (1) Digidata Series 1322A (Axon Instruments) at 5 kHz, and (2) Neuroplex (RedShirtImaging) at 2.7 kHz sampling rate. Only cells with a membrane potential more hyperpolarized than −50 mV, and action potential amplitudes exceeding 80 mV (measured from the base line) were included in this study. All experiments were performed on layer 5 cortical pyramidal cells at 34° C.
Blue dyes were stored in ethanol stock solution at −20° C. On the day of the recording blue dyes were dissolved in standard K-gluconate based intracellular solution. A loading pipette was filled with two varieties of the same intracellular solution; one with and one without dye. Dye-free solution was occupying the very tip of the pipette, while the back of the pipette lumen was microloaded with dye-rich solution. The purpose of dye-free solution in the tip of the patch pipette was to prevent dye-leak during the maneuver through brain slice tissue. VSD styryl dyes are lipophilic and bind indiscriminately and irreversibly to all membranes around the neuron of interest. Even a small amount of dye that leaks out of the pipette during the formation of the gigaohm seal, can generate strong fluorescent background. Fluorescent light emanating from surrounding tissue has a devastating effect on dendritic optical signals. Elimination of the background fluorescence is critical for dendritic voltage imaging. How much dye-free solution one should put in the tip depends on time period between the submersion of the patch pipette into the recording chamber and formation of the gigaohm seal. The faster one can perform this maneuver the less dye-free solution she needs to achieve optimal staining.
Blue VSD were injected at room temperature for 25-60 minutes. The filling pipette was carefully pulled out (outside-out patch) and brain slices were left to incubate for 20-120 minutes at room temperature. Just before optical recordings the cells were re-patched with dye-free pipette at the physiological temperature (34° C.).
Voltage-sensitive dye imaging was performed on a Zeiss Axioskope 2FS microscope equipped with NeuroCCD camera (RedShirtImaging). We used Zeiss 40× objective IR-Achroplan 0.80 W. The size of the square visual field captured by NeuroCCD camera was 384×384 um. In the place of the arc lamp (normally used for epi-illumination), we inserted a 200 μm fiber optic guide with a collimator. Laser beam was focused on the other side of the fiber optic guide using a microscope objective-like lens. This arrangement produced a motionless spot of laser light (˜25 μm in diameter) at the object plane. An illuminated section of the brain slice, projected onto the NeuroCCD camera, covered approximately 25 pixels when used with 40× objective lens. At this magnification, one pixel sampled a 4.8×4.8 square in the object plane. A region of interest (ROI) was brought into the laser spot using X-Y microscope platform. The laser beam was interrupted by an electro-programmable shutter (Uniblitz®). Attention was made to limit the exposure time during the recording and positioning of the neuron.

Structure (SMILES)	1PF Change (ΔF/F-100 mv) [1]	SHG kinetics, in words [2]	1PF Abs. Max [3] [nm]	1PF Em. Max [3] [nm]	dF/F at 658 nm [4] [%]	S/N ratio at 658 nm [4]	SHG Kinetics (exponential time constant) ([2]; time resolution 5 ms) [ms]	Absorbance ethanol [3] [nm]	Emission ethanol [3] [nm]	Absorbance MLV ([3]; multilamellar lipid vesicles) [nm]	Absorbance water [3] [nm]	polarity of optical signal at 532 nm excitation [4]	polarity of optical signal at 658 nm excitation [4]	average amplitude of AP-associated optical signal, 658 nm excitation ([4]; n=4 cells, N=24 measurements) [% ΔF/F]	average size of AP-associated optical signal, 532 nm excitation ([4]; same 4 cells) [% ΔF/F]	average amplitude ratio of AP-associated signal at two wavelengths (658/532 nm) ([4]; same cell and region of interest)	Emission MLV ([3]; multilamellar lipid vesicles) [nm]	2PF signal sensitivity detected between 750-850 nm ([2]; kinetics data, FIG. 3c) [%/50 mV]	2PF kinetics (time of signal change) ([2]; time resolution 5 ms) [ms]
CCC[N+](CCC)(CCC)CCC[n+]1ccc(/C=C/c2ccc(-c3ccc(N(CC)CC)s3)s2)cc1 [PY-1278]	7.9E−002; 640/>715 ΔF/F-100 mv	instantaneous	555	688															
CCCCN(CCCC)c1ccc2cc(/C=C/C=C/c3cc[n+](CCC[N+](C)(C)C)c4ccccc34)ccc2c1.[Br-].[Br-] [di-4-ANBDQPQ, Di-4-ANBDQPQ, reference compound]	2.0E−001; 618/>715 ΔF/F-100 mv		539	708	1.23 ± 0.66	4.97	<5	603	818	539	552								
CCCCN(CCCC)c1ccc2cc(/C=C/C=C/C=C/c3cc[n+](CCC[N+](C)(C)C)c4ccccc34)ccc2c1.[Br-].[Br-] [di-4-ANHTQPQ, reference compound]	5.4E−002; 630/>715 ΔF/F-100 mv		504	655			34 ± 3												
CN(C)c1ccc(/C=C/c2ccc(/C=C/c3cc[n+](CCC[N+](C)(C)C)c4ccccc34)o2)cc1 [JPW-3080]					5.13 ± 1.20	6.20 ± 2.29		630	896	569	554	negative optical signals	positive	4.13±0.96	0.97±0.26	4.39±1.07	730		
CC[N+](CC)(CC)CCC[n+]1ccc(/C=C/c2ccc(-c3ccc(N4CCCC4)s3)s2)cc1 [PY-1274]	5.0E−002; 620/>715 ΔF/F-100 mv		551	691															
CCCCN(CCCC)c1ccc2cc(/C=C/c3cc[n+](CCC[N+](C)(C)C)c4ccccc34)ccc2c1.[Br-].[Br-] [di-4-ANEQPQ, reference compound]	1.2E−001; 610/>665 ΔF/F-100 mv		528	670			76 ± 13												
CCN(CC)c1ccc(-c2ccc(-c3ccc(/C=C/c4cc[n+](CCC[N+](CC)(CC)CC)cc4)s3)s2)s1 [PY-1268]	4.2E−002; 640/>715 ΔF/F-100 mv	instantaneously	535	714	5.89 ± 3.41	4.44 ± 0.75	<5	588		535	508							4.28	≤ 5
